According to publication PMC7139549, “TLD1433 Photosensitizer Inhibits Conjunctival Melanoma Cells in Zebrafish Ectopic and Orthotopic Tumour Models” (Cancers, 2020):

System: CRMM1 cells injected behind the eye (RO) of zebrafish embryos
Experiment: Zebrafish orthotopic CM tumour model, CRMM1
Type: in vivo, Zebrafish (Danio rerio)
Settings: for PI (Fluorescence Intensity) / PI (Tumour Area) / Relative Tumour Burden as Measured by Fluorescence Intensity / Tumour Area: CRMM1, Orthotopic Model; for PI (Fluorescence Intensity) / PI (Tumour Area): 0 vs 114 J.cm^−2
Experimental: The zebrafish ectopic conjunctival melanoma tumour model has been described previously. In this model, around 200 fluorescent CM cells are injected into the Duct of Cuvier at 2 dpf, and then disseminate through the blood circulation and grow in the head and tail. To establish the orthotopic tumour model, around 100 red, (td)Tomato fluorescent CRMM1 or CRMM2 cells were injected RO at 2 dpf into tg(Fli:GFP/Casper), endothelial reporter transgenic zebrafish with green fluorescent vasculature and examined by fluorescent microscopy at day 1 and 4 after engraftment (Figure 6A). Tumour expansion at the injection site was measured as fluorescence intensity and tumour area.
For cancer cell injection, two days post-fertilization (dpf), dechorionated zebrafish embryos were anaesthetized with 0.003% tricaine (Sigma) and plated on a 10 cm Petri dish covered with 1.5% of solidified agarose. CRMM1 and CRMM2 cells were suspended in PBS containing 2% polyvinylpyrrolidone (PVP; Sigma-Aldrich) with a concentration of 50,000 cells/µL and loaded into borosilicate glass capillary needles (1 mm O.D. × 0.78 mm I.D.; Harvard Apparatus). In the ectopic model, 200 (td)Tomato fluorescent CM cells were injected into the Duct of Cuvier or at 2 dpf, which led to dissemination through the blood circulation and outgrowth in the head and tail. In orthotopic tumour model, 100 (td)Tomato fluorescent CRMM1 or CRMM2 cells were injected RO in 2 dpf embryos using a Pneumatic Picopump and a manipulator (WPI). After injection, the embryos were incubated in a 34 °C incubator. Images were acquired at 1-, 2- and 4-days post injection (dpi) with a Leica M165 FC stereo fluorescence microscope. Tumor growth was quantified by calculating the total fluorescence intensity and area with the ZF4 pixel counting program (Leiden). Each experiment was performed at least 3 times with a group size of >30 embryos.
Fluorescent CRMM1 and CRMM2 cells were injected at 2 dpf into the Duct of Cuvier (ectopic model) and behind the eye (orthotopic model) and TLD1433 was delivered by WA, IV and RO administration with or without a light treatment as described in 4.8. For the WA administration, the 4.6 nM TLD1433 solution was added to the tumour cells injected zebrafish at 2.5, 3.5, 4.5, 5.5 dpf and maintained for 12 h. At 3, 4, 5, 6 dpf, the fish water was refreshed, and after 1 h, embryos were exposed to green light for 90 min (21 mW/cm^2, 114 J/cm^2, 520 nm). For the IV and RO administration, 1 nL of 2.3 mM TLD1433 solution was injected via the dorsal vein or the RO site at 3, 4, 5, 6 dpf. After 1 h interval, the embryos were exposed to green light for 90 min (21 mW/cm^2, 114 J/cm^2, 520 nm). After treatment, the embryos images were acquired with a Leica M165 FC stereo fluorescence microscope. Tumor growth was quantified by calculating the total fluorescence intensity and area with the ZF4 pixel counting program (Leiden). Each experiment was performed at least 3 times with a group size of >30 embryos.

[1] = Intravenous (1 nL of 2.3 mM), Light Dose 0 J.cm^−2, vs control dark group (100%)
[2] = Intravenous (1 nL of 2.3 mM), Light Dose 114 J.cm^−2, vs control dark group (100%)
[3] = Water (4.6 nM), Light dose 0 J.cm^−2, vs control dark group (100%)
[4] = Water (4.6 nM), Light dose 114 J.cm^−2, vs control dark group (100%)
[5] = CRMM1, orthotopic model, RO 2.3 mM, green light 114 J.cm^−2

Structure (SMILES): Cc1ccnc(-c2cc(C)ccn2)c1.Cc1ccnc(-c2cc(C)ccn2)c1.[Cl-].[Cl-].[Ru+2].c1csc(-c2ccc(-c3ccc(-c4nc5c6cccnc6c6ncccc6c5[nH]4)s3)s2)c1 [TLD1433]
- PI (Fluorescence Intensity) (Intravenous (1 nL of 2.3 mM)): 0.82
- PI (Tumour Area) (Intravenous (1 nL of 2.3 mM)): 0.87
- Relative Tumour Burden as Measured by Fluorescence Intensity [1]: 91%
- Tumour Area [1]: 109%
- Relative Tumour Burden as Measured by Fluorescence Intensity [2]: 111%
- Tumour Area [2]: 126%
- PI (Tumour Area) (Retro orbital (1 nL of 2.3 mM)): 4.1
- Tumour Area (Retro orbital (1 nL of 2.3 mM), Light dose 0 J.cm^−2, vs control dark group (100%)): 125%
- Tumour Area (Retro orbital (1 nL of 2.3 mM), Light dose 114 J.cm^−2, vs control dark group (100%)): 31%
- PI (Fluorescence Intensity) (Retro-orbital (1 nL of 2.3 mM)): 1.8
- Relative Tumour Burden as Measured by Fluorescence Intensity (Retro-orbital (1 nL of 2.3 mM), Light Dose 0 J.cm^−2, vs control dark group (100%)): 120%
- Relative Tumour Burden as Measured by Fluorescence Intensity (Retro-orbital (1 nL of 2.3 mM), Light Dose 114 J.cm^−2, vs control dark group (100%)): 65%
- PI (Fluorescence Intensity) (Water (4.6 nM)): 1.0
- PI (Tumour Area) (Water (4.6 nM)): 1.0
- Relative Tumour Burden as Measured by Fluorescence Intensity [3]: 96%
- Tumour Area [3]: 90%
- Relative Tumour Burden as Measured by Fluorescence Intensity [4]: 96%
- Tumour Area [4]: 89%
- diminished fluorescence intensity [5]: 35%
- diminished tumour area [5]: 69%
- effect on tumour burden (in words) (CRMM1, orthotopic model, WA at the MTD (4.6 nM), light 114 J.cm^−2): did not inhibit tumour burden
